Measured values as given in US20200397796A1, “METHODS OF TREATMENT OF CANCER COMPRISING CHK1 INHIBITORS” (SIERRA ONCOLOGY, INC., priority 2018, published 2020).
“And” between values parts separate entries of the source, which are not always exact repeats. Equal entries are not always repeated. Where two headings read alike, the source gives them in different places.

What was measured:
[1] = system: KPC-1 pancreatic cancer; assay: In vivo efficacy, KPC-1 model; parameters: species or system mouse; settings: in combination with standard-dose gemcitabine; data not shown
Description: (§1) A program of in vivo efficacy studies was performed to assess the activity of SRA737 in combination with genotoxic chemotherapy and targeted agents, and as monotherapy.
(§2) One of these models also carried a MYCN amplification. A fourth HGSOC PDX model with partial resistance to PARPi was also sensitive to high dose SRA737 monotherapy.

[2] = system: OVCAR3 model of HGSOC; assay: In vivo efficacy, OVCAR3 CDX model; parameters: species or system mouse; settings: data not shown
Description: as §1, §2

[3] = system: MDA-MB-231 model of TNBC; assay: In vivo efficacy, MDA-MB-231 model; parameters: species or system mouse; settings: data not shown
Description: as §1, §2

[4] = system: patient-derived bladder carcinoma; assay: In vivo efficacy, patient-derived bladder carcinoma model; parameters: species or system mouse; settings: in combination with standard-dose gemcitabine; data not shown
Description: as §1, §2

[5] = Single dose PK, mouse; format: in vivo
Description: (§3) The PK of SRA737 have been determined in the mouse, rat, dog and monkey following oral and IV administration (Table 3). […] An acceptable terminal elimination t1/2 was also observed in each species. […] The plasma protein binding of SRA737 at 1 and 10 μM was examined in mouse, minipig, monkey and human plasma using ultracentrifugation and in dog plasma (10 μM) using rapid equilibrium dialysis.

[6] = target: CYP 2D6 (Homo sapiens, UniProt P10635); assay: CYP inhibition, 2D6; format: in vitro ADME; settings: highest concentration investigated
Sequence of CYP 2D6 (P10635 whole entry): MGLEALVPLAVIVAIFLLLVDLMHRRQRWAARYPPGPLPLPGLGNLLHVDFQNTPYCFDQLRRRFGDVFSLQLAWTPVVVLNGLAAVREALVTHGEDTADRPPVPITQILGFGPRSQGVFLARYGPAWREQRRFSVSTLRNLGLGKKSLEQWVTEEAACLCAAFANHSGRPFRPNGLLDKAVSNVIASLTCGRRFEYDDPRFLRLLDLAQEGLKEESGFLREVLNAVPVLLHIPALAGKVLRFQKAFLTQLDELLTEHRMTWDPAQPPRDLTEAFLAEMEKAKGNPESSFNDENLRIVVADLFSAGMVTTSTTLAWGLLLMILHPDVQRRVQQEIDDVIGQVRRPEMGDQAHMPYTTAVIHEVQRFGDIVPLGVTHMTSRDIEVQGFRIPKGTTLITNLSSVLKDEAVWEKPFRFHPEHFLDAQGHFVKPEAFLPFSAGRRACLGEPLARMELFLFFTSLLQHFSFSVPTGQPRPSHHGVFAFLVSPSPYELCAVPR

[7] = target: T1, Chk1 (Homo sapiens, UniProt O14757); assay: In vitro genotoxic chemotherapy-induced Chk1 autophosphorylation, checkpoint arrest and cytotoxicity potentiation; format: cell-based
T1 construct: endogenous in cells
T1 sequence (O14757 1-476): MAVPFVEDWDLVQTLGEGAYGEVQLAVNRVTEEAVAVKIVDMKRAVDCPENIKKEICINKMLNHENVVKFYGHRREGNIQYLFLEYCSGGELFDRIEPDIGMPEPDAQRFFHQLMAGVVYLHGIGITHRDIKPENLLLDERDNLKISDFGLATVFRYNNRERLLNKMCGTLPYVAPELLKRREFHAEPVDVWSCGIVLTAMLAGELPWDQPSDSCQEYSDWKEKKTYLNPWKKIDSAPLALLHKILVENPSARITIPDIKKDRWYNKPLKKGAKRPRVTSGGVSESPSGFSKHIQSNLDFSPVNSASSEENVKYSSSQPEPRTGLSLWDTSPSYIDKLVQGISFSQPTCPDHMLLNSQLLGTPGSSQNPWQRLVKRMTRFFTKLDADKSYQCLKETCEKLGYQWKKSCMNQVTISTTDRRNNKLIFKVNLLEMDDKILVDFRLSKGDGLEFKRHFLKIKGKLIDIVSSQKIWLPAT

[8] = target: T1, Chk1; settings: limited off-target activity against other kinases; Walton et al.; cited from earlier work
[9] = system: HGSOC PDX model with partial resistance to PARPi; assay: In vivo efficacy, HGSOC PDX model with partial resistance to PARPi; parameters: species or system mouse; settings: high dose SRA737 monotherapy
Description: as §1, §2

[10] = target: CYP 2C9 (Homo sapiens, UniProt P11712); assay: CYP inhibition, 2C9; format: in vitro ADME; settings: highest concentration investigated
Sequence of CYP 2C9 (P11712 whole entry): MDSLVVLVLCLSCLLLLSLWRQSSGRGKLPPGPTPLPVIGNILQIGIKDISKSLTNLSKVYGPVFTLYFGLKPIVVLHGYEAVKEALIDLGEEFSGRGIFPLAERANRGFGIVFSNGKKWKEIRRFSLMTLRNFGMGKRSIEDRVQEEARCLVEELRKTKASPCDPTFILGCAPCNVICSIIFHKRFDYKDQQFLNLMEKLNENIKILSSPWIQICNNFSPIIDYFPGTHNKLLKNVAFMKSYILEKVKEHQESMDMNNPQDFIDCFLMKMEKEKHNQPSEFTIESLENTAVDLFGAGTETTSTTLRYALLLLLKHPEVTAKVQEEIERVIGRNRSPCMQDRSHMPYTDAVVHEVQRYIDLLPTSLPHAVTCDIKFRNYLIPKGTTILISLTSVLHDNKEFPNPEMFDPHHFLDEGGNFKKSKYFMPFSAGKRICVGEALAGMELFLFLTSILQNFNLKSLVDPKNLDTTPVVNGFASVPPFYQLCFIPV

[11] = Caco-2 permeability assay; format: in vitro ADME; settings: human
Description: The membrane permeability of SRA737 was assessed in the parallel artificial membrane permeability assay (PAMPA) and Caco-2 assays. Permeability in the PAMPA assay was classified as low.

[12] = Phase 1 clinical trial, SRA737 in combination with gemcitabine dose escalation; format: in vivo; settings: human, plasma, oral, 20 mg, Day −7, mean, n = 8-10
[13] = Single dose PK, dog; format: in vivo
Description: as §3

[14] = system: CYP1A2; assay: CYP1A2 induction in vitro; format: in vitro ADME; settings: positive control omeprazole, concentration dependent
[15] = SRA737 plasma and tumor concentrations in HT29 xenograft model; format: in vivo, mouse; parameters: Tumor (6 h) concentration / Tumor (24 h) concentration: unit not given here; settings: for concentration at 6 h / concentration at 24 h: plasma
Description: For each dose, columns from left to right are concentrations for plasma at 6 hours, plasma at 24 hours, tumor at 6 hours, and tumor at 24 hours, respectively.
The effect of SRA737 on Gemcitabine induced CHK1 S296 autophosphorylation was assessed as described in Walton et al. (Oncotarget. 2016 Jan. 19; 7(3): 2329-2342), herein incorporated by reference for all it teaches. Briefly, mice bearing HT29 tumor xenografts were administered (i) vehicle control or (ii) gemcitabine (100 mg/kg in saline, IV) or (iii) a combination of SRA737 ([…]) and gemcitabine (100 mg/kg) with SRA737 administered 24 hours following gemcitabine administration (n=3 per time point per treatment). […] Exposure in the tumor was greater than 10-fold higher than in plasma. The circulating plasma concentration at this 24-hour timepoint corresponded to a free drug concentration of approximately 6 nM (2 ng/mL) based on plasma protein binding in mice of 94%.

[16] = in vivo, Mouse IV 10 mg/kg single dose
[17] = in vivo, Mouse oral 10 mg/kg single dose
[18] = in vivo, Dog IV 1 mg/kg single dose
[19] = in vivo, Dog oral 5 mg/kg single dose

Structure (SMILES): N#Cc1cnc(Nc2cc(NCC3CNCCO3)c(C(F)(F)F)cn2)cn1 (stereo not shown) [SRA737, 5-[[4-[[morpholin-2-yl]methylamino]-5-(trifluoromethyl)-2-pyridyl]amino]pyrazine-2-carbonitrile]
- antitumor activity [1]: Significant, dose-dependent antitumor activity
- single agent efficacy ([2]; single agent): single agent efficacy
- synergy ([2]; with low-dose gemcitabine): Synergy
- single agent efficacy [3]: single agent efficacy
- antitumor activity [4]: Significant, dose-dependent antitumor activity
- Foral ([5]; Mouse oral 10 mg/kg single dose): 105%
- AUC(0-t) [5, 16]: 3770 ng·h/mL
- half-life [5, 16]: 174 min
- AUC(0-t) [5, 17]: 3940 ng·h/mL
- Cmax [5, 17]: 610 ng/mL
- Tmax [5, 17]: 1 h
- half-life [5, 17]: 168 min
- IC50 [6]: 10 to 50 µM
- cytotoxicity of genotoxic chemotherapeutic agents and targeted agents [7]: dose-dependent potentiation
- genotoxicity-induced checkpoint arrest [7]: dose-dependent inhibition
- genotoxic chemotherapy-induced Chk1 autophosphorylation ([7]; data not shown): potently inhibited
- inhibitor of Chk1 [8]: potent and selective inhibitor of Chk1
- sensitivity to SRA737 [9]: sensitive
- IC50 [10]: 10 to 50 µM
- Papp at 10 μM [11]: 20.7 ± 9.1 ×10⁻⁶ cm/s
- efflux ratio at 10 μM ([11]; read-out: efflux ratio (A>B/B>A)): 0.8
- Cmax [12]: 31.3 ng/mL
- Tmax [12]: 1.9 h
- Foral ([13]; Dog oral 5 mg/kg single dose): 86%
- AUC(0-t) [13, 18]: 200 ng·h/mL
- half-life [13, 18]: 168 min
- AUC(0-t) [13, 19]: 850 ng·h/mL
- Cmax [13, 19]: 130 ng/mL
- Tmax [13, 19]: 1 to 3 h
- half-life [13, 19]: 210 min
- induction of CYP1A2 [14]: < 10 % positive control
- Tumor (6 h) concentration ([15]; 3.125 mg/kg): 3183.276
- Tumor (24 h) concentration ([15]; 3.125 mg/kg): 645.7623
- Tumor (6 h) concentration ([15]; 6.25 mg/kg): 4011.501
- Tumor (24 h) concentration ([15]; 6.25 mg/kg): 965.7797
- Tumor (6 h) concentration ([15]; 12.5 mg/kg): 19009.57
- Tumor (24 h) concentration ([15]; 12.5 mg/kg): 3974.933
- Tumor (6 h) concentration ([15]; 25 mg/kg): 37516
- Tumor (24 h) concentration ([15]; 25 mg/kg): 16289.53
- Tumor (6 h) concentration ([15]; 50 mg/kg): 76331.2
- Tumor (24 h) concentration ([15]; 50 mg/kg): 27483.73
- Tumor (6 h) concentration ([15]; 100 mg/kg): 131506.7
- Tumor (24 h) concentration ([15]; 100 mg/kg): 101764.1
- concentration at 6 h ([15]; mouse, oral, 3.125 mg/kg): 194 nM
- concentration at 24 h ([15]; mouse, oral, 3.125 mg/kg, read-out: Plasma (24 h) concentration): 0 nM
- concentration at 6 h ([15]; mouse, oral, 6.25 mg/kg): 323 nM
- concentration at 24 h ([15]; mouse, oral, 6.25 mg/kg, read-out: Plasma (24 h) concentration): 13.1 nM
- concentration at 24 h ([15]; mouse, oral, 12.5 mg/kg, 24-hour timepoint, based on plasma protein binding in mice of 94%, read-out: free drug concentration in plasma): ~6 nM and ~2 ng/mL
- concentration at 24 h ([15]; mouse, oral, 12.5 mg/kg, at 24 hours, approximate, read-out: minimum (total) plasma concentration corresponding to inhibition of pS296 Chk1): ~100 nM
- concentration at 24 h ([15]; mouse, oral, 12.5 mg/kg, at 24 hours, read-out: minimum (total) plasma concentration corresponding to inhibition of pS296 Chk1): ~40 ng/mL
- concentration at 24 h ([15]; mouse, oral, 12.5 mg/kg, read-out: Plasma (24 h) concentration): 78 ± 27 nM
- Kp ([15]; mouse, tumor, oral, HT29 xenograft mice, read-out: exposure in the tumor relative to plasma): > 10
